Measurements published in publication PMC8286840, “Identifying SARS-CoV-2 antiviral compounds by screening for small molecule inhibitors of Nsp3 papain-like protease” (Biochemical Journal, 2021).
Structures can show the parent of a compound that is named as a salt. Where two headings read alike, the source gives them in different places. *1 amine or outer side, *2 acyl side, *3 side chain or, on linkers, in order; H or OH if unused. Where a SMILES comes first, the peptide text is derived from it. Bridges are numbered along the chain shown (N, C = ends). X1 = O=C(CCC[*:2])[*:1]

Assays:
[1] = target: T1, SARS-CoV-2 PLpro (nsp3 1564–1878) (Severe acute respiratory syndrome coronavirus 2, UniProt P0DTD1); test: biochemical; parameters: FRET-quenched peptide (Pro3) cleavage by PLpro, 10 min pre-incubation, slope over 20 min, normalised to no-compound control; conditions: high concentration screen, read-out: % of control remaining
[2] = target: T1, SARS-CoV-2 PLpro (nsp3 1564–1878); test: biochemical; parameters: FRET-quenched peptide (Pro3) cleavage by PLpro, 10 min pre-incubation, slope over 20 min, normalised to no-compound control; conditions: low concentration screen, read-out: % of control remaining

`CC1(C)S[C@@H]2[C@H](NC(=O)C(C(=O)O)c3ccccc3)C(=O)N2[C@H]1C(=O)O` (stereo partly shown) [Carbenicillin disodium] was tested, and the remaining activity at 3.75 µM ([1]; Well no.=5030) was 96.8% and the remaining activity at 1.25 µM ([2]; Well no.=5030) was 96.4%.
`CCN(CC)CCOCCOC(=O)C1(c2ccccc2)CCCC1` [Carbetapentane citrate] gave a remaining activity at 3.75 µM ([1]; Well no.=368) of 92.5% and a remaining activity at 1.25 µM ([2]; Well no.=368) of 90.8%.
Work on `CC[C@H](C)[C@@H]1NC(=O)[C@H](Cc2ccc(OC)cc2)NC(=O)CCCSC[C@@H](C(=O)N2CCC[C@H]2C(=O)N[C@@H](CC(C)C)C(=O)NCC(N)=O)NC(=O)[C@H](CC(N)=O)NC(=O)[C@H](CCC(N)=O)NC1=O` [Carbetocin] (Y(Me)IQNCPLG-NH2; linker N-5 via X1) yielded a remaining activity at 3.75 µM ([1]; Well no.=8293) of 101% and a remaining activity at 1.25 µM ([2]; Well no.=8293) of 102%.
Compound `CCOC(=O)n1ccn(C)c1=S` [Carbimazole] has a remaining activity at 3.75 µM ([1]; Well no.=5124) of 105% and a remaining activity at 1.25 µM ([2]; Well no.=5124) of 104%.
Compound `NC(=O)c1nnn(Cc2cc(Cl)c(C(=O)c3ccc(Cl)cc3)c(Cl)c2)c1N` [Carboxyamidotriazole] has a remaining activity at 3.75 µM ([1]; Well no.=5819) of 89.8% and a remaining activity at 1.25 µM ([2]; Well no.=5819) of 94.7%.
For `NCCC(=O)NCCc1c[nH]cn1` [Carcinine dihydrochloride], the remaining activity at 3.75 µM ([1]; Well no.=237) was 97.8% and the remaining activity at 1.25 µM ([2]; Well no.=237) was 95.2%.
`COc1ccc(-c2nn3c(-c4ccccn4)nnc3s2)cc1OC` [Cardionogen-2] was tested, and the remaining activity at 3.75 µM ([1]; Well no.=5937) was 99.4% and the remaining activity at 1.25 µM ([2]; Well no.=5937) was 102%.
Work on `CC(C)C[C@H](NC(=O)[C@H](CCc1ccccc1)NC(=O)CN1CCOCC1)C(=O)N[C@@H](Cc1ccccc1)C(=O)N[C@@H](CC(C)C)C(=O)[C@@]1(C)CO1` [Carfilzomib (PR-171)] yielded a remaining activity at 3.75 µM ([1]; Well no.=5173) of 97.1% and a remaining activity at 1.25 µM ([2]; Well no.=5173) of 103%.
`NC(=O)N[C@@H](CCC(=O)O)C(=O)O` [Carglumic Acid] showed a remaining activity at 3.75 µM ([1]; Well no.=7594) of 102% and a remaining activity at 1.25 µM ([2]; Well no.=7594) of 99.7%.
`CN(C)C(=O)N[C@H]1CC[C@H](CCN2CCN(c3cccc(Cl)c3Cl)CC2)CC1` [Cariprazine (hydrochloride)] gave a remaining activity at 3.75 µM ([1]; Well no.=6661) of 103% and a remaining activity at 1.25 µM ([2]; Well no.=6661) of 108%.
`CCCC(C)(COC(N)=O)COC(=O)NC(C)C` (stereo not shown) [Carisoprodol] gave a remaining activity at 3.75 µM ([1]; Well no.=380) of 95.3% and a remaining activity at 1.25 µM ([2]; Well no.=380) of 95.8%.
Compound `Cc1c(C(=O)O)c(O)cc2c1C(=O)c1c(O)c([C@@H]3O[C@H](CO)[C@@H](O)[C@H](O)[C@H]3O)c(O)c(O)c1C2=O` [Carminic acid] has a remaining activity at 3.75 µM ([1]; Well no.=3101) of 103% and a remaining activity at 1.25 µM ([2]; Well no.=3101) of 102%.
`O=NN(CCCl)C(=O)NCCCl` [Carmustine] showed a remaining activity at 3.75 µM ([1]; Well no.=137) of 102% and a remaining activity at 1.25 µM ([2]; Well no.=137) of 102%.
Work on `CC(C)c1cc2c(c(O)c1O)[C@@]1(C(=O)O)CCCC(C)(C)[C@@H]1CC2` [Carnosic acid] yielded a remaining activity at 3.75 µM ([1]; Well no.=4038) of 104% and a remaining activity at 1.25 µM ([2]; Well no.=4038) of 101%.
Work on `CC(C)(C)NCC(O)COc1cccc2c1CCC(=O)N2` (stereo not shown) [Carteolol (hydrochloride)] yielded a remaining activity at 3.75 µM ([1]; Well no.=7623) of 97.2% and a remaining activity at 1.25 µM ([2]; Well no.=7623) of 101%.
`COc1ccccc1OCCNCC(O)COc1cccc2[nH]c3ccccc3c12` (stereo not shown) [Carvedilol] was tested, and the remaining activity at 3.75 µM ([1]; Well no.=1569) was 103%, the remaining activity at 3.75 µM ([1]; Well no.=4051) was 104% and the remaining activity at 3.75 µM ([1]; Well no.=6702) was 97.8%. It also gave a remaining activity at 1.25 µM ([2]; Well no.=1569) of 99.6%, a remaining activity at 1.25 µM ([2]; Well no.=4051) of 103% and a remaining activity at 1.25 µM ([2]; Well no.=6702) of 97.7%.
`NC(=O)c1ccc(-c2nc(-c3ccc4c(c3)OCCO4)c(-c3ccccn3)[nH]2)cc1` [Casein Kinase I Inhibitor, D4476] showed a remaining activity at 3.75 µM ([1]; Well no.=2372) of 99.2% and a remaining activity at 1.25 µM ([2]; Well no.=2372) of 102%.
Compound `O=C(O)C=Cc1cc(Br)c(Br)c(Br)c1Br` [Casein Kinase II Inhibitor III, TBCA] has a remaining activity at 3.75 µM ([1]; Well no.=2374) of 104% and a remaining activity at 1.25 µM ([2]; Well no.=2374) of 102%.
`COc1cc(Nc2ncc3ccn(-c4cccc(CCC#N)c4)c3n2)cc(OC)c1OC` [Casein Kinase II Inhibitor IV] gave a remaining activity at 3.75 µM ([1]; Well no.=2381) of 105% and a remaining activity at 1.25 µM ([2]; Well no.=2381) of 104%.
Compound `CC[C@H](C)C[C@H](C)CCCCCCCCC(=O)N[C@H]1C[C@@H](O)[C@@H](NCCN)NC(=O)[C@@H]2[C@@H](O)CCN2C(=O)[C@H]([C@H](O)CCN)NC(=O)[C@H]([C@H](O)[C@@H](O)c2ccc(O)cc2)NC(=O)[C@@H]2C[C@@H](O)CN2C(=O)[C@H]([C@@H](C)O)NC1=O` [Caspofungin Acetate] has a remaining activity at 3.75 µM ([1]; Well no.=5317) of 95.7% and a remaining activity at 1.25 µM ([2]; Well no.=5317) of 99.9%.
For `O[C@H]1[C@H](O)[C@@H](O)CN2CC[C@H](O)[C@H]12` [Castanospermine], the remaining activity at 3.75 µM ([1]; Well no.=3135) was 102% and the remaining activity at 1.25 µM ([2]; Well no.=3135) was 102%.
Compound `OC[C@H]1O[C@@H](O[C@@H]2OC=C[C@H]3[C@H](O)[C@@H]4O[C@]4(CO)[C@@H]23)[C@H](O)[C@@H](O)[C@@H]1O` [Catalpol] has a remaining activity at 3.75 µM ([1]; Well no.=3274) of 103% and a remaining activity at 1.25 µM ([2]; Well no.=3274) of 102%.
Compound `CCC1=C[C@@H]2CN3CCc4c([nH]c5ccccc45)[C@@](C(=O)OC)(C2)[C@@H]13` [Catharanthine] has a remaining activity at 3.75 µM ([1]; Well no.=3595) of 107% and a remaining activity at 1.25 µM ([2]; Well no.=3595) of 104%.
`CCN1/C(=C/C(C)=O)Sc2ccc(OC)cc21` [Cdc2-Like Kinase Inhibitor, TG003] gave a remaining activity at 3.75 µM ([1]; Well no.=2410) of 109% and a remaining activity at 1.25 µM ([2]; Well no.=2410) of 106%.
In the case of `O=C1N=C(NCc2cccs2)S/C1=C\c1ccc2ncccc2c1` [Cdk1 Inhibitor IV, RO-3306], the remaining activity at 3.75 µM ([1]; Well no.=2347) is reported as 104% and the remaining activity at 1.25 µM ([2]; Well no.=2347) is reported as 103%.
`CCn1cnc2c(Nc3cccc(Cl)c3)nc(N[C@@H]3CCCC[C@@H]3N)nc21` [Cdk1 Inhibitor, CGP74514A] showed a remaining activity at 3.75 µM ([1]; Well no.=2366) of 96.1% and a remaining activity at 1.25 µM ([2]; Well no.=2366) of 96.7%.
For `O=C1Nc2ccccc2/C1=C\c1c(Cl)[nH]c2ccccc12` [Cdk1 Inhibitor], the remaining activity at 3.75 µM ([1]; Well no.=2364) was 104% and the remaining activity at 1.25 µM ([2]; Well no.=2364) was 101%.
`Nc1nc(Nc2ccc(S(N)(=O)=O)cc2)nn1C(=S)Nc1c(F)cccc1F` [Cdk1/2 Inhibitor III] showed a remaining activity at 3.75 µM ([1]; Well no.=2368) of 102% and a remaining activity at 1.25 µM ([2]; Well no.=2368) of 99.3%.
With `Nc1[nH]nc2nc3ccccc3nc12` [Cdk1/5 Inhibitor] the remaining activity at 3.75 µM ([1]; Well no.=2370) was 98.7% and the remaining activity at 1.25 µM ([2]; Well no.=2370) was 96.8%.
Compound `COc1ccc(CNc2nc(N(CCO)CCO)nc3c2ncn3C(C)C)cc1` [Cdk2 Inhibitor III] has a remaining activity at 3.75 µM ([1]; Well no.=2416) of 110% and a remaining activity at 1.25 µM ([2]; Well no.=2416) of 107%.
For `NS(=O)(=O)c1ccc(N=Nc2c(O)[nH]c3ccc(Br)cc23)cc1` [Cdk2 Inhibitor II], the remaining activity at 3.75 µM ([1]; Well no.=2383) was 103% and the remaining activity at 1.25 µM ([2]; Well no.=2383) was 102%.
Compound `CCN(CC)C(=O)c1ccc(Nc2nc(OCC3CCCCC3)c3[nH]cnc3n2)cc1` [Cdk2 Inhibitor IV, NU6140] has a remaining activity at 3.75 µM ([1]; Well no.=2418) of 94.5% and a remaining activity at 1.25 µM ([2]; Well no.=2418) of 100%.
In the case of `COc1ccc(OC)c2c(=S)c3ccccc3[nH]c12` [Cdk4 Inhibitor II, NSC 625987], the remaining activity at 3.75 µM ([1]; Well no.=2406) is reported as 108% and the remaining activity at 1.25 µM ([2]; Well no.=2406) is reported as 102%.
